Laboratory results reported in patent US8937188B2, “Process for the preparation of lasofoxifene tartrate” (Glenmark Generics Ltd., priority 2009, dated 2015).

SMILES: COc1ccc2c(c1)CCC=C2c1ccc(OCCN2CCCC2)cc1 [Example 1, 1-{2-[4-(6-Methoxy-3,4-dihydronaphthalene-1-yl)phenoxy]ethyl}pyrrolidine]
- melting point: 71 to 75 °C
